In ChEMBL document CHEMBL1201862, “PubChem BioAssay data set” (2004):
Activity calls are given as the source filed them.

Columns and labels:
[1] = Luminescence Cell-Based Dose Retest to Confirm Inhibitors of Cancer Stem Cells. [Related pubchem assays (depositor defined):AID2717, AID2721]; format: functional; conditions: Homo sapiens
[2] = target: T1, Replicative DNA helicase DnaB (Mycobacterium tuberculosis, UniProt P9WMR3); assay: DnaB intein splicing inhibitors, dose response, biochemical, cell-free fluorescence (AID 449749); format: functional
T1 sequence (P9WMR3 whole entry): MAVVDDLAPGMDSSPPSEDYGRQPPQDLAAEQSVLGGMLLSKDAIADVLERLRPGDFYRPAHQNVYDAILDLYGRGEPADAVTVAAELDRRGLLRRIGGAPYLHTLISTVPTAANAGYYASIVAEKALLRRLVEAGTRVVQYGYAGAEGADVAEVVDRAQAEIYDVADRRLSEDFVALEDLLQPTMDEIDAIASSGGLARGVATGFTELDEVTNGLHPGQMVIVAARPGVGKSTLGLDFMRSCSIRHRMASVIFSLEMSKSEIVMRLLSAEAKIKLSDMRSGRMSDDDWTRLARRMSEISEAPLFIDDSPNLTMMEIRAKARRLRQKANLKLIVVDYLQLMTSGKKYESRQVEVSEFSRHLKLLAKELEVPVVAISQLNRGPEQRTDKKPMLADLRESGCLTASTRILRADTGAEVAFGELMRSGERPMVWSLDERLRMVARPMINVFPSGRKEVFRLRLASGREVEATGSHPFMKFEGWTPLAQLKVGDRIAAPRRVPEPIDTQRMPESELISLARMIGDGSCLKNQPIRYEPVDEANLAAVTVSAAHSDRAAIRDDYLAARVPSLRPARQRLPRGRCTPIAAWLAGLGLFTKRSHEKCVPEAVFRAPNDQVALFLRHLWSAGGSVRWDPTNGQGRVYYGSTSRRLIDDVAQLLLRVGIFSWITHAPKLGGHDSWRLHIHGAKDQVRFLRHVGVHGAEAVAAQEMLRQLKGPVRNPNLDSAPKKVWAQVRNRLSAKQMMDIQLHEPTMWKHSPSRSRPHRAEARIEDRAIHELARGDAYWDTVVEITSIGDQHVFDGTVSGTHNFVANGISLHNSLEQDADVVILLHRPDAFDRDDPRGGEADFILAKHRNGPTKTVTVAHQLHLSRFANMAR

Protein RecA = target: T2, Protein RecA (Mycobacterium tuberculosis, UniProt P9WHJ3); assay: Fluorescence Cell-Free Homogeneous Dose Retest to Identify Inhibitors of RecA-Intein Splicing Activity. [Related pubchem assays (depositor defined):AID2097, AID2223, AID489010, AID492950]; format: functional
T2 sequence (P9WHJ3 whole entry): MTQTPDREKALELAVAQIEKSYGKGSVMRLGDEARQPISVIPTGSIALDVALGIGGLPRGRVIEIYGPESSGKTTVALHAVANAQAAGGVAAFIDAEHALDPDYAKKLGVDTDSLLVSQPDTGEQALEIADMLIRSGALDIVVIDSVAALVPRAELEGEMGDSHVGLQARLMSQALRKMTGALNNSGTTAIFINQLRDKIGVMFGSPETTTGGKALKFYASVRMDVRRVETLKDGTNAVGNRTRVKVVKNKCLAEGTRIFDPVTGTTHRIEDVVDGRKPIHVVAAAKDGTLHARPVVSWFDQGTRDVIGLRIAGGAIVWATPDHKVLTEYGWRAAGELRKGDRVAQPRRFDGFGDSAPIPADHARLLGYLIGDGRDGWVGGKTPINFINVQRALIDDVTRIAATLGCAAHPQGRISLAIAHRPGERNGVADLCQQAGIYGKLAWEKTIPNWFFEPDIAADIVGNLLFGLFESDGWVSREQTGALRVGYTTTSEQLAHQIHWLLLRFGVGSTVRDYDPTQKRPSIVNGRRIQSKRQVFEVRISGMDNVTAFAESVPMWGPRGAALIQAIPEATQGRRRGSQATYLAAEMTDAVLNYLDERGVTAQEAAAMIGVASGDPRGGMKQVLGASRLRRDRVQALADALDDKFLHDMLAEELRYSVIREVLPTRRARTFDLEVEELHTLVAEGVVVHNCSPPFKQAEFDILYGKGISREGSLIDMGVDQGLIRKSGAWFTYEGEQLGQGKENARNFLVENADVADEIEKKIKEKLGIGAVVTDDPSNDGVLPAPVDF

[3] = target: T3, Heat shock factor protein 1 (Mus musculus, UniProt P38532); assay: inhibition of MG132-induced HSE-luciferase signal, confirmation, cell-based, NIH3T3, luminescence, dose retest (AID 2382); format: functional;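 also: NIH3T3 fibroblasts with HSF1-driven luciferase reporter stressed by proteasome inhibitor MG132; luminescence from HSF1-driven luciferase expression after 8 hours of MG132 stress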
T3 sequence (P38532 whole entry): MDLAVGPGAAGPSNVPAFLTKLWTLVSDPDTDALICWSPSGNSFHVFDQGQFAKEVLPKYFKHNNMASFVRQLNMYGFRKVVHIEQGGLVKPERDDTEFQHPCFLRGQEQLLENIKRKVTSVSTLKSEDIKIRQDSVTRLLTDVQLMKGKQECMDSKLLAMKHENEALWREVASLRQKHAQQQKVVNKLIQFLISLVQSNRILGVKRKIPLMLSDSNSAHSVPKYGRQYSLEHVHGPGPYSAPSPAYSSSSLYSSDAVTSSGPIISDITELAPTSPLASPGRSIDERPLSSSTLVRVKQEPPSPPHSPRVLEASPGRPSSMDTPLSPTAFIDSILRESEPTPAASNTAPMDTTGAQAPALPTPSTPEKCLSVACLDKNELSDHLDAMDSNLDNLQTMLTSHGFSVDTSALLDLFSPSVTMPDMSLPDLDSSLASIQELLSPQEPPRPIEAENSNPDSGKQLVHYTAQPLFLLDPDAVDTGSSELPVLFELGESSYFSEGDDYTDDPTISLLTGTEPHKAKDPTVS

[4] = tested on: Streptococcus sp. 'group A'; assay: growth inhibition of control SK(-) GAS strain, dose response, counter-screen for streptokinase expression inhibitor project, luminescence, kanamycin, BacTiterGlo, confirmation (AID 1900); format: functional, organism-based
Streptococcus = assay: Group A Streptococcus viability loss, dose response, counter-screen for streptokinase expression inhibitor project, luminescence, BacTiterGlo (AID 1915); format: functional, organism-based;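 also: potency for reduction of bacterial viability or growth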
[5] = target: T4, Polyadenylate-binding protein 1 (Homo sapiens, UniProt P11940); assay: PABP1 MLLE–PAM2 interaction inhibitors, dose response, miRNA deadenylation inhibitor project, biochemical, fluorescence polarization, Cy5-PAM2 peptide, secondary (AID 602260); format: functional; conditions: read-out: IC50_Mean
T4 sequence (P11940 whole entry): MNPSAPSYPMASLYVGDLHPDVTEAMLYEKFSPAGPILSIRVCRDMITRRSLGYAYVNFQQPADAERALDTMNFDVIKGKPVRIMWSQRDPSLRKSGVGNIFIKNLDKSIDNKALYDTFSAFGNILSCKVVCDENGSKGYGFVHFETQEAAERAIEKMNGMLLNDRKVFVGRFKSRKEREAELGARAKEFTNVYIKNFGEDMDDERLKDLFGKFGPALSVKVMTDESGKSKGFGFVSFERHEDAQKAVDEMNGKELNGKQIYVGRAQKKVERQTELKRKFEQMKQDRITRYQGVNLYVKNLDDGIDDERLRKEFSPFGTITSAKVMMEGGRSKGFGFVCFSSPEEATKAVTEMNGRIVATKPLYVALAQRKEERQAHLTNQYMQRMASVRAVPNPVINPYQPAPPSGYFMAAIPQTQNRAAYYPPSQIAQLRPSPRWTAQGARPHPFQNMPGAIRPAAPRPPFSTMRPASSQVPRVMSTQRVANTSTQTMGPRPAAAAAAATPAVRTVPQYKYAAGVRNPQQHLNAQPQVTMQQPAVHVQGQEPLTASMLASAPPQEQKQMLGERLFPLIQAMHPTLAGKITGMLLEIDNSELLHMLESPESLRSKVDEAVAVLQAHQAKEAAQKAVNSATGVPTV

[6] = target: T4, Polyadenylate-binding protein 1; assay: PABP1 MLLE–PAM2 binding inhibitor potency, dose response, biochemical, fluorescence polarization, FITC-PAM2 peptide (AID 602259); format: functional; conditions: read-out: IC50_Mean
[7] = growth suppression of PTEN-null colon cells, dose response, cell-based, HCT116 PTEN knockout (AID 1047); format: functional;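 also: HCT116 colon tumor cells with PTEN knocked out; cells exposed to compound for 60 hours before readout; potency for loss of cell viability measured by luminescence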
[8] = growth suppression of beta-catenin-knockout colon cells, dose response, cell-based, HCT116, human colon tumor (AID 1045); format: functional;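 also: HCT116 colon tumor cells with beta catenin knocked out; cells exposed to compound for 60 hours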

Compound	AC50 [2]	EC50 (Protein RecA)	IC50 [5]	IC50 [6]	further results
CC(=O)Oc1ccc(C2=NN(c3ccccc3)C(c3ccccc3)C2)cc1 (stereo not drawn)	–	–	–	–	AC50 [1]: 2.63 µM (active)
CC1=NN(c2ccccc2)C(=O)/C1=C\c1c[nH]nc1-c1ccccc1	4.1 µM (active)	2.54 µM (active)	–	–	–
COCc1n[nH]c2c1C1(CCSCC1)C(C#N)=C(N)O2	18.5 µM (active)	2.26 µM (active)	–	–	EC50 [3]: > 195 µM (not active)
C=C(C)COc1ccc(-c2[nH]nc(C)c2-c2ccc(Br)cc2)c(O)c1	–	–	–	–	EC50 [4]: 2.99 µM (active); EC50 (Streptococcus): 4.72 µM (active); AC50 [1]: 0.692 µM (active)
Cc1nc(NS(=O)(=O)c2ccccc2)sc1NC(=O)OC(C)C	–	–	> 66 µM (inactive)	> 66 µM (inactive)	–
COc1ccc(C(=O)NC(=S)NC2CCSC2=O)cc1 (stereo not drawn)	–	–	> 66 µM (inactive)	> 66 µM (inactive)	–
Cc1[nH]nc2c1C1(CCC(c3ccccc3)CC1)C(C#N)=C(N)O2 (stereo not drawn)	5.82 µM (active)	1.51 µM (active)	–	–	–
COc1cc(C2C(C#N)=C(N)Oc3c2c(-c2ccccc2)nn3-c2ccccc2)cc(OC)c1OC (stereo not drawn)	26.8 µM (active)	27.9 µM (active)	–	–	–
S=C(c1ccc(Cl)cc1)N1CCOCC1 [(4-CHLOROPHENYL)(MORPHOLINO)METHANETHIONE]	–	–	> 66 µM (inactive)	> 66 µM (inactive)	–
COc1ccc(-c2c(=O)n(OC)c3ccccc3[n+]2[O-])cc1OC	> 380 µM (inactive)	> 380 µM (inactive)	–	–	–
COc1ccc(C2c3c(ncn(Cc4ccco4)c3=N)Oc3ccc4ccccc4c32)cc1 (stereo not drawn)	–	–	–	–	EC50 [7]: 9.97 µM (active); EC50 [8]: 8.89 µM (active); AC50 [1]: 4.48 µM (active)
COc1ccc(OCCCC(=O)OCC(=O)Nc2ncc(Cl)cc2Cl)cc1	–	–	> 66 µM (inactive)	30.3 µM (inactive)	–
Cn1c(=O)c(C(=O)NNC(=O)c2ccc(Br)cc2)c(O)c2ccccc21	–	–	–	–	AC50 [1]: 3.03 µM (active)
CCCCC1OC23CCCCC2C(C#N)(C(=N)O3)C1(C#N)C#N (stereo not drawn)	–	–	> 66 µM (inactive)	> 66 µM (inactive)	–
CC(=O)Nc1ccc(S(=O)(=O)NCC(=O)N2CCN(S(=O)(=O)c3cccs3)CC2)cc1	–	–	> 66 µM (inactive)	> 66 µM (inactive)	–
CCCn1c(=C(C#N)C#N)s/c(=C2\C=Cc3ccccc3N2CC)c1=O	–	–	> 66 µM (inactive)	> 66 µM (inactive)	–
